Data: US12605401B2, “Polymers, compositions and methods for treating hyperuricemia” (WATERSTONE PHARMACEUTICALS (WUHAN) CO., LTD., priority 2021, dated 2026)

Tested on: chronic hyperuricemia model rats
Test: Chronic hyperuricemia model, adenine + ethambutol, 21 days; serum UA, CREA, UREA
Type: in vivo
Procedure: 48 rats were randomly divided into 6 groups with 8 rats in each group. The groups were as follows: Blank Group (Vehicle, ig), Model Group (Vehicle, ig), Positive control group (Allopurinol, 10 mg/kg, ig), Compound 1 group (Sevelamer carbonate, 250 mg/kg, ig), Compound 2 low-dose group (TAA polymer, 50 mg/kg, ig), Compound 2 high-dose group (TAA polymer, 250 mg/kg, ig). Except for blank group, rats in other groups were modeled according to the chronic modeling method. The modeling method was as follows: rats were given Adenine (100 mg/kg)+Ethambutol (250 mg/kg) by gavage, once a day, for 21 days. Animals in blank group and model group were given equal volume of normal saline by gavage. Animals in positive control group were given positive 10 mg/kg Alloalcohol, once in the first week, once in the second week, once a day for 3 days before sampling in the third week. Animals in other groups were given intragastric administration once a day for 14 consecutive days from the 8th day of modeling. Blood samples were taken at Day 21 after modeling, and serum samples were separated and stored at −80° C. for biochemical detection.
After 21 days of modeling (14 days of drug treatment), blood samples were taken and serum separation was performed to detect three renal functions (UA, CREA and UREA) (See Table 1 and FIGS. 2a, 2b and 2c). Compound 1 is Sevelamer carbonate and Compound 2 is a graft polytriallylamine with 50% molar percentage of the moiety to the tertiary amine in polytriallylamine.

## Oc1ncnc2[nH]ncc12 [Allopurinol]
10 mg/kg ig, day 21
  CREA, effect in words: significantly reduced
  UA, effect in words: significantly reduced
  UREA, effect in words: significantly reduced
Conclusion over the dose groups
  CREA and UREA, conclusion in words (protective effect on the kidney): can decrease
